# Experimental data from PubChem BioAssay (NCI).
#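 Where inhibition never reached the appropriate level, the endpoint shown equals the highest concentration tested. Otherwise, values were interpolated linearly from a five-concentration, 48-hour dose response in 96-well plates. GI50 marks 50% less growth. TGI is the concentration that stops growth completely.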
# Columns and labels:
# Assay in all cases: inhibition of tumour cell growth, NCI panel, 48 h
# [1] = test system: BT-549 breast
# [2] = test system: SNB-75 CNS
# [3] = test system: NCI-H460 lung
# [4] = test system: NCI-H522 lung
# [5] = test system: COLO 205 colon
# [6] = test system: ACHN renal
# [7] = test system: NCI-H23 lung
# [8] = test system: SW-620 colon
# [9] = test system: UACC-62 melanoma
# [10] = test system: HS 578T breast
# [11] = test system: NCI-H226 lung
# [12] = test system: DU-145 prostate
# [13] = test system: IGROV1 ovarian
# [14] = test system: EKVX NSCLC
# [15] = test system: OVCAR-5 ovarian
# [16] = test system: OVCAR-3 ovarian
# [17] = test system: HL-60(TB) leukemia
# [18] = test system: TK-10 renal
# [19] = test system: NCI/ADR-RES ovarian
# [20] = test system: A498 renal
# [21] = test system: MDA-MB-231 breast
# [22] = test system: MCF7 breast
# [23] = test system: SF-539 CNS
# [24] = test system: LOX IMVI melanoma
# [25] = test system: U251 CNS
# [26] = test system: SR leukemia
# [27] = test system: RXF 393 renal
# [28] = test system: HT29 colon
# [29] = test system: PC-3 prostate
compound,measurement,setting,value
Nc1c(C(=O)Nc2ccccc2F)sc2nc3c(cc12)C(=O)CCC3,TGI,[1],> 52.5 µM
same,GI50,[2],1.88 µM
same,TGI,[2],> 57.8 µM
same,GI50,[3],0.541 µM
same,TGI,[3],> 63.1 µM
same,GI50,[4],0.476 µM
same,TGI,[4],3.9 µM
same,GI50,[5],0.696 µM
same,TGI,[5],6.81 µM
same,GI50,[6],> 21.5 µM
same,TGI,[6],> 100 µM
same,GI50,[7],2.04 µM
same,TGI,[7],> 100 µM
same,GI50,[8],0.721 µM
same,TGI,[8],> 100 µM
same,GI50,[9],0.654 µM
same,TGI,[9],> 100 µM
same,GI50,[10],2.01 µM
same,TGI,[10],> 25.5 µM
same,GI50,[11],10.5 µM
same,TGI,[11],> 100 µM
same,GI50,[12],1.81 µM
same,TGI,[12],> 28.6 µM
same,GI50,[13],2.92 µM
same,TGI,[13],> 100 µM
same,TGI,[14],> 100 µM
same,GI50,[15],4.05 µM
same,TGI,[15],> 100 µM
same,GI50,[16],0.576 µM
same,TGI,[16],3.9 µM
same,GI50,[17],2.4 µM
same,TGI,[17],> 100 µM
same,GI50,[18],4.3 µM
same,TGI,[18],> 100 µM
same,GI50,[19],0.509 µM
same,TGI,[19],5.09 µM
same,GI50,[20],0.47 µM
same,TGI,[20],> 24 µM
same,GI50,[21],7.53 µM
same,TGI,[21],> 100 µM
same,GI50,[22],0.499 µM
same,TGI,[22],> 100 µM
same,GI50,[23],0.817 µM
same,TGI,[23],> 22.2 µM
same,GI50,[24],8.58 µM
same,TGI,[24],> 100 µM
same,GI50,[25],1.23 µM
same,TGI,[25],> 100 µM
same,GI50,[26],1.68 µM
same,TGI,[26],> 100 µM
same,GI50,[27],0.738 µM
same,TGI,[27],3.82 µM
same,GI50,[28],0.531 µM
same,TGI,[28],> 100 µM
same,GI50,[29],0.959 µM
same,TGI,[29],> 100 µM
